What was measured:
Format in all cases: in vivo
Setaria viridis [1] = test: Post-emergence herbicidal test, SETVI; set-up: key to herbicidal effect (0-9 scale) SETVI / herbicidal rating SETVI: A rating 0 indicates growth as untreated control; a rating 9 indicates death; details: for herbicidal effect (0-9 scale) SETVI: POST, 21 days after spraying
Protocol: (§1) To evaluate their herbicidal activity, compounds according to the invention are tested using a representative range of plants:
(§2) […] After spraying, the plants are placed on greenhouse benches and are cared for in the usual manner, commensurate with conventional greenhouse practices.
(§3) The herbicidal effects of the test compounds are assessed visually twenty-one days after spraying the foliage and the soil and are recorded on a 0-9 scale. A rating 0 indicates growth as untreated control, a rating 9 indicates death. An increase of 1 unit on the linear scale approximates to a 10% increase in the level of effect.

Triticum aestivum [2] = test: Post-emergence herbicidal test, TRZAW; set-up: key to herbicidal effect (0-9 scale) TRZAW: A rating 0 indicates growth as untreated control; a rating 9 indicates death; details: for herbicidal effect (0-9 scale) TRZAW: POST, 21 days after spraying
Protocol: as §1, §2, §3

Zea mays [3] = test: Post-emergence herbicidal test, ZEAMX; details: 21 days after spraying
Protocol: as §1, §2, §3

Galium aparine [4] = test: Pre-emergence herbicidal test, GALAP; details: PRE, 21 days after spraying
Protocol: as §1
(§4) The pre-emergence tests involve spraying a liquid formulation of the compound onto the soil in which the seeds of the plant species mentioned above has recently been sown.
(§5) The soil used in the tests is a prepared horticultural loam. The formulations used in the tests are prepared from solutions of the test compounds in acetone containing 0.4% by weight of an alkylphenol/ethylene oxide condensate available under the trade mark TRITON X-155. […] In these tests untreated sown soil are used as controls.
as §3

Matricaria inodora [5] = test: Pre-emergence herbicidal test, MATIN; set-up: key to herbicidal effect (0-9 scale) MATIN / herbicidal rating MATIN: A rating 0 indicates growth as untreated control; a rating 9 indicates death; details: for herbicidal effect (0-9 scale) MATIN: PRE, 21 days after spraying
Protocol: as §1, §4, §5, §3

[6] = system: representative range of plants; test: Herbicidal activity, pre- and post-emergence, overall; details: both in pre- and post-emergence
Protocol: as §1, §4
The soil used in the tests is a prepared horticultural loam. The formulations used in the tests are prepared from solutions of the test compounds in acetone containing 0.4% by weight of an alkylphenol/ethylene oxide condensate available under the trade mark TRITON X-155. These acetone solutions are diluted with water and the resulting formulations applied at dosage levels corresponding to 1000 g and 250 g/ha of active material per hectare in a volume equivalent to 900 litres per hectare. In these tests untreated sown soil are used as controls.
These acetone solutions are diluted with water and the resulting formulations applied at dosage levels equivalent to about 1000, 800, 400, 250 or 100 g/ha per hectare of test compound per pot. After spraying, the plants are placed on greenhouse benches and are cared for in the usual manner, commensurate with conventional greenhouse practices.
as §3

Stellaria media [7] = test: Pre-emergence herbicidal test, STEME; set-up: key to herbicidal effect (0-9 scale) STEME / herbicidal rating STEME: A rating 0 indicates growth as untreated control; a rating 9 indicates death; details: PRE, 21 days after spraying
Protocol: as §1, §4, §5, §3

Triticum aestivum [8] = test: Pre-emergence herbicidal test, TRZAW; details: 21 days after spraying
Protocol: as §1, §4, §5, §3

Echinochloa crus-galli [9] = test: Post-emergence herbicidal test, ECHCG; details: 21 days after spraying
Protocol: as §1, §2, §3

Zea mays [10] = test: Pre-emergence herbicidal test, ZEAMX; set-up: key to herbicidal effect (0-9 scale) ZEAMX / herbicidal rating ZEAMX: A rating 0 indicates growth as untreated control; a rating 9 indicates death; details: for herbicidal effect (0-9 scale) ZEAMX: PRE, 21 days after spraying
Protocol: as §1, §4, §5, §3

Matricaria inodora [11] = test: Post-emergence herbicidal test, MATIN; set-up: key to herbicidal effect (0-9 scale) MATIN / herbicidal rating MATIN: A rating 0 indicates growth as untreated control; a rating 9 indicates death; details: POST, 21 days after spraying
Protocol: as §1, §2, §3

[12] = system: representative range of plants; test: Pre-emergence herbicidal test, summary over the plants tested; details: 400 g/ha
Protocol: as §1, §4, §5, §3

Echinochloa crus-galli [13] = test: Pre-emergence herbicidal test, ECHCG; details: 21 days after spraying
Protocol: as §1, §4, §5, §3

Abutilon theophrasti [14] = test: Post-emergence herbicidal test, ABUTH; set-up: key to herbicidal effect (0-9 scale) ABUTH / herbicidal rating ABUTH: A rating 0 indicates growth as untreated control; a rating 9 indicates death; details: POST, 21 days after spraying
Protocol: as §1, §2, §3

Alopecurus myosuroides [15] = test: Pre-emergence herbicidal test, ALOMY; details: PRE, 21 days after spraying
Protocol: as §1, §4, §5, §3

Stellaria media [16] = test: Post-emergence herbicidal test, STEME; set-up: key to herbicidal effect (0-9 scale) STEME / herbicidal rating STEME: A rating 0 indicates growth as untreated control; a rating 9 indicates death; details: POST, 21 days after spraying
Protocol: as §1, §2, §3

[17] = system: representative range of plants; test: Post-emergence herbicidal test, summary over the plants tested
Protocol: as §1, §2, §3

Ipomoea hederacea [18] = test: Pre-emergence herbicidal test, IPOHE; set-up: key: A rating 0 indicates growth as untreated control; a rating 9 indicates death; details: 21 days after spraying
Protocol: as §1, §4, §5, §3

Cyperus = test: Pre-emergence herbicidal test, Cyperus; details: 100 g/ha
Protocol: as §4, §5, §3

Setaria viridis [19] = test: Pre-emergence herbicidal test, SETVI; set-up: key to herbicidal effect (0-9 scale) SETVI / herbicidal rating SETVI: A rating 0 indicates growth as untreated control; a rating 9 indicates death; details: for herbicidal effect (0-9 scale) SETVI: PRE, 21 days after spraying
Protocol: as §1, §4, §5, §3

Abutilon theophrasti [20] = test: Pre-emergence herbicidal test, ABUTH; set-up: key to herbicidal effect (0-9 scale) ABUTH / herbicidal rating ABUTH: A rating 0 indicates growth as untreated control; a rating 9 indicates death; details: for herbicidal effect (0-9 scale) ABUTH: PRE, 21 days after spraying
Protocol: as §1, §4, §5, §3

Ambrosia = test: Pre-emergence herbicidal test, Ambrosia; details: 100 g/ha
Protocol: as §4, §5, §3

Alopecurus myosuroides [21] = test: Post-emergence herbicidal test, ALOMY; details: 21 days after spraying
Protocol: as §1, §2, §3

Ipomoea hederacea [22] = test: Post-emergence herbicidal test, IPOHE; set-up: key to herbicidal effect (0-9 scale) IPOHE / herbicidal rating IPOHE: A rating 0 indicates growth as untreated control; a rating 9 indicates death; details: POST, 21 days after spraying
Protocol: as §1, §2, §3

Galium aparine [23] = test: Post-emergence herbicidal test, GALAP; set-up: key to herbicidal effect (0-9 scale) GALAP / herbicidal rating GALAP: A rating 0 indicates growth as untreated control; a rating 9 indicates death; details: for herbicidal effect (0-9 scale) GALAP: POST, 21 days after spraying
Protocol: as §1, §2, §3

Cn1c(C(F)(F)F)cc(=O)n(-n2ncc3cc([N+](=O)[O-])ccc32)c1=O [Example 7]
herbicidal effect (0-9 scale) SETVI (Setaria viridis [1]; 25 g/ha): 8 | herbicidal effect (0-9 scale) SETVI (Setaria viridis [1]; 100 g/ha): 9 | herbicidal effect (0-9 scale) SETVI (Setaria viridis [1]; 400 g/ha): 9 | control of Setaria (Setaria viridis [1]; post-emergence, 100 g/ha): excellent control | herbicidal effect (0-9 scale) TRZAW (Triticum aestivum [2]; 25 g/ha): 0 | herbicidal effect (0-9 scale) TRZAW (Triticum aestivum [2]; 100 g/ha): 1 | herbicidal effect (0-9 scale) TRZAW (Triticum aestivum [2]; 400 g/ha): 3 | wheat tolerance (Triticum aestivum [2]; post-emergence, 100 g/ha): good wheat tolerance | herbicidal effect (0-9 scale) ZEAMX (Zea mays [3]; 25 g/ha): 2 | herbicidal effect (0-9 scale) ZEAMX (Zea mays [3]; 100 g/ha): 3 | herbicidal effect (0-9 scale) ZEAMX (Zea mays [3]; 400 g/ha): 5 | herbicidal effect (0-9 scale) GALAP (Galium aparine [4]; 100 g/ha): 4 | herbicidal effect (0-9 scale) GALAP (Galium aparine [4]; 400 g/ha): 8 | herbicidal effect (0-9 scale) MATIN (Matricaria inodora [5]; 100 g/ha): 9 | herbicidal effect (0-9 scale) MATIN (Matricaria inodora [5]; 400 g/ha): 9 | control of Matricaria (Matricaria inodora [5]; pre-emergence, 100 g/ha): good control | herbicidal performance [6]: good performance | herbicidal effect (0-9 scale) STEME (Stellaria media [7]; 100 g/ha): 5 | herbicidal effect (0-9 scale) STEME (Stellaria media [7]; 400 g/ha): 9 | herbicidal effect (0-9 scale) TRZAW (Triticum aestivum [8]; 100 g/ha): 1 | herbicidal effect (0-9 scale) TRZAW (Triticum aestivum [8]; 400 g/ha): 4 | herbicidal effect (0-9 scale) ECHCG (Echinochloa crus-galli [9]; 25 g/ha): 2 | herbicidal effect (0-9 scale) ECHCG (Echinochloa crus-galli [9]; 100 g/ha): 7 | herbicidal effect (0-9 scale) ECHCG (Echinochloa crus-galli [9]; 400 g/ha): 8 | herbicidal effect (0-9 scale) ZEAMX (Zea mays [10]; 100 g/ha): 0 | herbicidal effect (0-9 scale) ZEAMX (Zea mays [10]; 400 g/ha): 4 | selectivity in maize (Zea mays [10]; pre-emergence, 100 g/ha): surprisingly good selectivity | herbicidal effect (0-9 scale) MATIN (Matricaria inodora [11]; 25 g/ha): 7 | herbicidal effect (0-9 scale) MATIN (Matricaria inodora [11]; 100 g/ha): 8 | herbicidal effect (0-9 scale) MATIN (Matricaria inodora [11]; 400 g/ha): 9 | control of the weeds [12]: all of the weeds except Alopecurus were well controlled | herbicidal effect (0-9 scale) ECHCG (Echinochloa crus-galli [13]; 100 g/ha): 7 | herbicidal effect (0-9 scale) ECHCG (Echinochloa crus-galli [13]; 400 g/ha): 8 | herbicidal effect (0-9 scale) ABUTH (Abutilon theophrasti [14]; 25 g/ha): 8 | herbicidal effect (0-9 scale) ABUTH (Abutilon theophrasti [14]; 100 g/ha): 9 | herbicidal effect (0-9 scale) ABUTH (Abutilon theophrasti [14]; 400 g/ha): 9 | herbicidal effect (0-9 scale) ALOMY (Alopecurus myosuroides [15]; 100 g/ha): 3 | herbicidal effect (0-9 scale) ALOMY (Alopecurus myosuroides [15]; 400 g/ha): 6 | herbicidal effect (0-9 scale) STEME (Stellaria media [16]; 25 g/ha): 4 | herbicidal effect (0-9 scale) STEME (Stellaria media [16]; 100 g/ha): 8 | herbicidal effect (0-9 scale) STEME (Stellaria media [16]; 400 g/ha): 9 | control of all of the broadleaf weeds ([17]; 100 g/ha): excellent control | control of the weeds ([17]; dose not given): good cross spectrum control on both broadleaf weeds and grasses except Alopecurus | crop tolerance ([17]; dose not given): no observable crop tolerance | herbicidal effect (0-9 scale) IPOHE (Ipomoea hederacea [18]; 100 g/ha): 7 | herbicidal effect (0-9 scale) IPOHE (Ipomoea hederacea [18]; 400 g/ha): 9 | control of Cyperus (Cyperus): good control | herbicidal effect (0-9 scale) SETVI (Setaria viridis [19]; 100 g/ha): 8 | herbicidal effect (0-9 scale) SETVI (Setaria viridis [19]; 400 g/ha): 9 | control of Setaria (Setaria viridis [19]; pre-emergence, 100 g/ha): good control | herbicidal effect (0-9 scale) ABUTH (Abutilon theophrasti [20]; 100 g/ha): 9 | herbicidal effect (0-9 scale) ABUTH (Abutilon theophrasti [20]; 400 g/ha): 9 | control of Abutilon (Abutilon theophrasti [20]; pre-emergence, 100 g/ha): good control | control of Ambrosia (Ambrosia): good control | herbicidal effect (0-9 scale) ALOMY (Alopecurus myosuroides [21]; 25 g/ha): 2 | herbicidal effect (0-9 scale) ALOMY (Alopecurus myosuroides [21]; 100 g/ha): 4 | herbicidal effect (0-9 scale) ALOMY (Alopecurus myosuroides [21]; 400 g/ha): 6 | herbicidal effect (0-9 scale) IPOHE (Ipomoea hederacea [22]; 25 g/ha): 9 | herbicidal effect (0-9 scale) IPOHE (Ipomoea hederacea [22]; 100 g/ha): 9 | herbicidal effect (0-9 scale) IPOHE (Ipomoea hederacea [22]; 400 g/ha): 9 | herbicidal effect (0-9 scale) GALAP (Galium aparine [23]; 25 g/ha): 6 | herbicidal effect (0-9 scale) GALAP (Galium aparine [23]; 100 g/ha): 8 | herbicidal effect (0-9 scale) GALAP (Galium aparine [23]; 400 g/ha): 9 | control of Galium aparine (Galium aparine [23]; post-emergence, 100 g/ha): excellent control

— patent US6376426B1, “Herbicidal 3-(heterocycl-1-yl)-uracils” (BASF Aktiengesellschaft, priority 1999, dated 2002)
